According to article PMC9298352, “Design, Synthesis and Structural Analysis of Glucocerebrosidase Imaging Agents” (Chemistry (Weinheim an Der Bergstrasse, Germany), 2021):

How the values were obtained:
[1] = target: T1, rhGBA (Homo sapiens, UniProt P04062); experiment: Time-dependent labelling of rhGBA with galacto-ABP 7 and gluco-ABP 8 (SDS-PAGE, Cy5 fluorescence); assay type: biochemical; conditions: rhGBA 700 nM, ABP 150 nM
T1 construct: made in house; host or cells: insect-baculovirus expression vector system (BEVS)
T1 sequence (P04062 40-536): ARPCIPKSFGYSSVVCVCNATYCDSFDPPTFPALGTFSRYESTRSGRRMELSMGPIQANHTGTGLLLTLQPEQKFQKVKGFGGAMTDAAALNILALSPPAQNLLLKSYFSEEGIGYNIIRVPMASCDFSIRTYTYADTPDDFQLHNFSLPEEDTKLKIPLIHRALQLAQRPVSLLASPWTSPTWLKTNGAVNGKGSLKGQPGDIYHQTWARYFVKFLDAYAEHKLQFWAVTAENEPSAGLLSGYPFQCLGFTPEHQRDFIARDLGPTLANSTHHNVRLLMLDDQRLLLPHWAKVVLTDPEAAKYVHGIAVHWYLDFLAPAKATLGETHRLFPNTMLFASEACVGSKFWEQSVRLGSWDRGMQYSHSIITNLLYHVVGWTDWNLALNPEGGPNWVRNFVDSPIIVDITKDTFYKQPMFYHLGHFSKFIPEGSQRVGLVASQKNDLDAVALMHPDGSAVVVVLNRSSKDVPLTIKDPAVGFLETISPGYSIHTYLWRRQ
Description: To rapidly investigate for cross‐reactivity with galacto‐configured cyclophellitol aziridines, time‐dependent labelling assays of rhGBA with galacto‐configured Cy5‐tagged aziridine ABP 7 were performed (Figure 3).
Figure 3 Time dependent labelling of rhGBA (700 nM) by Cy5‐tagged galacto‐ABP 7 (150 nM) after 2, 5, 10, 30 and 60 mins showing that labelling reaches saturation at 30 mins. In comparison, labelling by Cy5‐tagged gluco‐ABP 8 (150 nM) reaches saturation in 2mins. […] ABP labelled rhGBA (60 kDa) visualized by Cy5 fluorescent readout.
rhGBA produced in BEVS[58] was prepared at 700 nM in 150 mM McIlvaine buffer pH 5.2 (containing 0.1 % (v/v) Triton X‐100 and 0.2 % (w/v) sodium taurocholate) and ABP 7 or ABP 8 were added to 150 nM. The reactions were incubated at 37 °C and aliquots were taken at 2, 5, 10, 30 and 60 mins. The aliquots were immediately denatured with Laemmli (x3) sample buffer by heating at 95 °C for 5 minutes. The samples were resolved by electrophoresis in 10 % SDS‐PAGE gels, running at 200 V for ∼50 minutes. Wet slab gels were scanned on fluorescence using an AmershamTyphoon 5 Imager (GE Healthcare) with λEX 635 nm; λEM >665 nm.

[2] = test system: GBA; conditions: read-out: apparent IC50 for GBA; cited from earlier work

SMILES	time to saturation of rhGBA labelling (Figure 3 legend) [1] [min]	time to saturation of rhGBA labelling ([1]; pH 5.2, 37 °C) [min]	time within which rhGBA is labelled ([1]; pH 5.2, 37 °C) [min]	IC50 [2] [nM]
C[N+]1=C(C=CC=CC=C2N(CCCCCC(=O)NCc3ccc(C4=C5C(C=NN4)C4CC(C(=O)NCCCCCCN6C7C(O)C(O)C(O)C(CO)C76)C5C4)cc3)c3ccccc3C2(C)C)C(C)(C)c2ccccc21 (stereo not shown) [ABP 7]	30	≤ 30	≤ 2	–
OC[C@@H]1[C@@H](O)[C@H](O)[C@@H](O)[C@@H]2N[C@H]12 [compound 2, cyclophellitol aziridine]	–	–	–	500
